Data published in patent US20250367282A1, “POLYCATION CARRIER PARTICLE” (ALLARTA LIFE SCIENCE INC., priority 2022, published 2025).

How the values were obtained:
[1] = system: RAW 264.7 macrophage cells; format: cell-based
Method: The cells were cultured for 3 days to reach about 80% confluence. The media was removed from the wells and the cells were washed once with about 250 μL of PBS. […] As controls, cells were exposed to a) 100 μL of serum-free DMEM, b) 100 µL of 10% v/v DMSO in serum-free DMEM, and c) 100 μL of 0.1 wt. % OVA-FITC in serum-free DMEM, were added to the cells. The cells were incubated for 4 h at 37° C., 5% CO2 in a humidified atmosphere. […] After 15 min, the paraformaldehyde solution was removed, the cells were washed twice with about 250 μL of PBS, and then 100 μL of PBS was added to the fixed cells. The cells were then imaged by brightfield and confocal fluorescence microscopy

[2] = system: RAW 264.7 macrophage cells; assay: MTS cytotoxicity assay; format: cell-based; details: 4 hours incubation; particles 0.1 wt. %, DMSO 10% v/v, serum-free DMEM; mean±standard deviation
Method: The cells were cultured for 3 days to reach around 80% confluence. The media was removed from the wells and the cells were washed once with about 250 μL of PBS. […] As controls, 100 μL of serum-free DMEM supplemented with 1% penicillin-streptomycin, 100 μL of 10% v/v DMSO in serum-free DMEM supplemented with 1% penicillin-streptomycin, 100 μL of 0.1 wt. % OVA-FITC in serum-free DMEM supplemented with 1% penicillin-streptomycin, and 100 μL of 0.1 wt. % HD particles suspensions in serum-free DMEM supplemented with 1% penicillin-streptomycin were added to the cells. The cells were incubated for 4 h at 37° C., 5% CO2 in a humidified atmosphere. 20 μL of MTS solution (Promega) was added to the wells and mixed. The plates were shaken at a horizontal distance of 1 mm for 10 seconds and read at 490 nm using a Biotek™ 800 TS absorbance reader. Statistical analysis was performed on the data using one-way analysis of variance (ANOVA) with a Bonferroni post hoc analysis. Significance level was set at p<0.05.

## C[S+](C)[O-] [DMSO, dimethyl sulfoxide]
[1]
  cell morphology by brightfield microscopy: rounded cell morphology and signs of apoptosis
[2]
  mean viability of RAW 264.7 cells: 64±12%
